Data reported in paper PMC8997399, “High-Throughput Screening to Identify Inhibitors of Plasmodium falciparum Importin α” (Cells, 2022).
Read-outs that look alike come from different tables or passages of the source.

Assays:
[1] = biological target: PfIMPα (Plasmodium falciparum, UniProt Q8IAW0); test: biochemical; type: binding; conditions: for inhibition at 10 µM: read-out: % Inhibition of IMPα-NLS Interaction PfIMPα
Procedure: (§1) PfIMPα, TgIMPα, Mus musculus IMPα (MmIMPα), ΔIBBMmIMPα, and β1 (MmIMPβ) GST fusion proteins were expressed and purified essentially as previously. His-tagged TGS1-NLS-GFP, PfIMPα and TgIMPα proteins were purified using Ni^2+-affinity chromatography as described. His-tagged SV40 T-ag-NLS-GFP was purified as previously. Biotinylation of GST-tagged proteins was carried out using the Sulfo-NHS-Biotin reagent (Pierce, Rockford, IL, USA) as described previously. AlphaScreen binding assay was performed as described previously.
Then, 10 nM biotinylated PfIMPα and 60 nM TGS1-NLS-GFP were used with library compounds, screened at 10 µM final concentration.
Briefly, 5 μL of each compound in DMSO was added to quadruplicate wells of a 384-well plate along with appropriate controls including DMSO alone and ivermectin, as previously, using a JANUS Modular Dispense Technology (MDT) robotic system (PerkinElmer, Waltham, MA, USA). This was followed by successive 7 and 5 μL additions, respectively, of PfIMPα (10 nM) and TGS1-NLS-GFP (60 nM) or PBS (“no bait” control), respectively, and 30 min incubation at room temperature. […] Then, 4 µL of the AlphaScreen donor beads (1/40 dilution of GSH. acceptor beads in PBS) was finally added to each well using a Multidrop, followed by a further incubation of 2 h at room temperature in the dark.
(§2) Plates were read for an Alphascreen signal on an Envision plate reader (PerkinElmer, Waltham, MA, USA), with signals from the negative control wells (no bait control) on each plate subtracted.

[2] = biological target: TgIMPα (Toxoplasma gondii, UniProt A0A125YID0); test: biochemical; type: binding; conditions: for inhibition at 10 µM: read-out: % Inhibition of IMPα-NLS Interaction TgIMPα
Procedure: as §1, §2

[3] = biological target: T1, MmΔIBBIMPα (Mus musculus, UniProt P52293); test: AlphaScreen binding assay, MmΔIBBIMPα:T-ag-NLS-GFP interaction; conditions: for inhibition at 10 µM: read-out: % Inhibition of IMPα-NLS Interaction MmΔIBBIMPα
T1 construct: made in house
Procedure: as §1, §2

[4] = biological target: T2, MmIMPα/β heterodimer (Mus musculus, UniProt P52293); test: AlphaScreen binding assay, MmIMPα/β:T-ag-NLS-GFP interaction; conditions: for inhibition at 10 µM: read-out: % Inhibition of IMPα-NLS Interaction MmIMPα/β
T2 construct: GST; made in house
Procedure: as §1, §2

[5] = tested on: P. falciparum 3D7 strain; test: P. falciparum growth inhibition assay (HRP2 sandwich ELISA); type: cell-based, Plasmodium falciparum; conditions: Plasmodium falciparum, 3D7, 72 h
Procedure: Red blood cells (RBCs) were derived from blood from volunteers (approval from the Institute Ethics Committee, IIT Bombay, Mumbai, India) by density gradient centrifugation. Aliquots of cryopreserved P. falciparum 3D7 strain in human red blood cells (RBCs—3% hematocrit, <5% parasitemia) were thawed and cultured using RPMI (Roswell Park Memorial Institute) 1640 medium supplemented with 0.5% Albumax (Gibco^TM, Waltham, MA, USA), 50 mg/L hypoxanthine (Sigma-Aldrich, St Louis, MO, USA), 2 g/L D-glucose (Sigma-Aldrich, St Louis, MO, USA), 2 g/L sodium bicarbonate (Sigma-Aldrich, St Louis, MO, USA), and 56 mg/L of gentamicin (Abbott, Chicago, IL, USA) at 37 °C in 5% CO2 in a humidified incubator according to the standard procedures; suspension cultures were maintained at 3% hematocrit and <5% parasitemia, by adding a fresh medium daily and a regular addition of fresh human RBCs.
Before growth inhibition assays, cultures were synchronized using 5% D-sorbitol (Sigma-Aldrich, St Louis, MO, USA) predominantly to obtain the ring stage of the P. falciparum life cycle.
Growth assays in the absence and presence of inhibitors were performed using the Histidine–Rich Protein 2 (HRP2) sandwich horseradish peroxidase-linked immunosorbent assay to measure HRP2 protein levels as an indicator of growth. Briefly, 25 µL of compound was added to 96-well microculture plates (Eppendorf, Hamburg, Germany) of 0.25% (with fresh RBCs), and added at a hematocrit of 3%. The plates were then incubated for 72 h at 37 °C in a humidified incubator, sparged with 5% CO2. 72 h later, the plates were subjected to freeze–thaw to achieve hemolysis, and samples diluted 200-fold in H2O in transferring to another plate. A day prior to analysis, 96-well ELISA plates (Sigma-Aldrich, St Louis, MO, USA) were coated overnight at 4 °C with 100 µL of 1 μg/mL IgM capture antibody MPFM-55A (Immunology Consultants Laboratory, Portland, OR, USA) specific for P. falciparum HRP2. After blocking for 2 h at room temperature with 2% BSA in PBS, diluted samples were added to the wells, followed by incubation for 2 h, then the plates were washed three times with 0.05% Tween 20 in PBS. Next, 100 µL of the secondary antibody MPFG-55P (Immunology Consultants Laboratory, Portland, OR, USA) conjugated with horseradish peroxidase (0.25 μg/mL in PBS with 2% BSA) was then added to each well, and the plates incubated for 1 h at room temperature, prior to being washed three times, and 100 µL 3,3′, 5,5′ tetramethylbenzidine substrate (BD Biosciences, San Jose, CA, USA) being added. After 10 min incubation in the dark, 50 µL of 1 M H2SO4 was added and the absorbance was read at 450 nm on a Multiscan™ FC Microplate Spectrophotometer (Thermo Fisher Scientific, Waltham, MA, USA).

[6] = biological target: His-tagged SV40 T-ag-NLS-GFP (NLS of simian virus SV40 large tumor antigen fused to GFP) (Simian Virus 40); test: AlphaScreen or HTRF
[7] = tested on: T. gondii tachyzoites; conditions: cited from earlier work
[8] = biological target: His-tagged TGS1-NLS-GFP (NLS of P. falciparum trimethyl guanosine synthase 1 fused to GFP) (Plasmodium falciparum); test: AlphaScreen or HTRF; Kd determination without inhibitors; His-tagged NLS-GFP (30 nM) and biotinylated-GST-IMPα (5 nM) as printed; pooled from three independent experiments
[9] = compounds at 10 μM, PfIMPα (10 nM):TGS1-NLS-GFP (60 nM), relative to 1% DMSO control, quadruplicate
[10] = compounds at 10 μM, TgIMPα (5 nM):T-ag-NLS-GFP (30 nM), relative to 1% DMSO control
[11] = compounds at 10 μM, ΔIBBMmIMPα (5 nM):T-ag-NLS-GFP (30 nM), relative to 1% DMSO control
[12] = compounds at 10 μM, MmIMPα/β (5 nM):T-ag-NLS-GFP (30 nM), relative to 1% DMSO control

Cl.NCC(O)c1cc(O)c(O)cc1F (stereo not drawn) [6-Fluoronorepinephrine HCl]
% Inhibition of IMPα-NLS Interaction PfIMPα [1, 9]: 77%
% Inhibition of IMPα-NLS Interaction TgIMPα [2, 10]: 67%
% Inhibition of IMPα-NLS Interaction MmΔIBBIMPα [3, 11]: 60%
% Inhibition of IMPα-NLS Interaction MmIMPα/β [4, 12]: 51%

O=c1ccc2ccc(O)c(O)c2o1 [Daphnetin]
inhibition at 10 µM [1, 9]: 81%
inhibition at 10 µM [2, 10]: 70%
inhibition at 10 µM [3, 11]: 81%
inhibition at 10 µM [4, 12]: 83%

CC(C)(CN)c1nc(-c2ccc(Cl)c(O)c2)c(-c2ccnc(N)n2)[nH]1 [MMV030734]
% Inhibition of IMPα-NLS Interaction TgIMPα [2, 10]: 44%
% Inhibition of IMPα-NLS Interaction MmΔIBBIMPα [3, 11]: 43%
% Inhibition of IMPα-NLS Interaction MmIMPα/β [4, 12]: 68%

C[C@H]1[C@@H](O)O[C@@H]2O[C@@]3(C)CC[C@H]4[C@H](C)CC[C@@H]1[C@@]24OO3 [DHA, dihydroartemisinin]
IC50 ([5]; parasites in culture, pooled, mean ± SD (n = 3)): 1 nM
IC50 ([5]; single typical experiment (Figure 6)): 0.7 nM

CC[n+]1c(/C=C/C=C2/N(C)c3ccccc3C2(C)C)sc2ccccc21.[I-] [AC-93253 iodide]
% Inhibition of IMPα-NLS Interaction PfIMPα [1, 9]: 82%
% Inhibition of IMPα-NLS Interaction TgIMPα [2, 10]: 72%
% Inhibition of IMPα-NLS Interaction MmΔIBBIMPα [3, 11]: 67%
% Inhibition of IMPα-NLS Interaction MmIMPα/β [4, 12]: 62%

Toxoplasma gondii importin α (TgIMPα), biotinylated GST fusion protein (natural protein)
Kd [6]: 3.5 nM

O=C(Nc1nc(-c2ccccn2)cs1)c1cncn1-c1ccccc1 [MMV676512]
% Inhibition of IMPα-NLS Interaction TgIMPα [2, 10]: 48%
% Inhibition of IMPα-NLS Interaction MmΔIBBIMPα [3, 11]: 54%

Mus musculus importin α deleted for the autoinhibitory IBB domain (MmΔIBBIMPα), biotinylated GST fusion protein (domain or fragment)
Kd [6]: 2.6 nM

O=C(Nc1ccc(N2CCNCC2)nc1)c1oc(-c2ccccc2)nc1C(F)(F)F [MMV024937]
% Inhibition of IMPα-NLS Interaction PfIMPα [1, 9]: 73%
% Inhibition of IMPα-NLS Interaction TgIMPα [2, 10]: 26%
% Inhibition of IMPα-NLS Interaction MmΔIBBIMPα [3, 11]: 70%
% Inhibition of IMPα-NLS Interaction MmIMPα/β [4, 12]: 24%

CNC[C@H](O)c1ccc(O)c(O)c1 [(−)-Epinephrine bitartrate]
inhibition at 10 µM [1]: 85%
inhibition at 10 µM [2]: 23%
inhibition at 10 µM [3, 11]: 34%
inhibition at 10 µM [4, 12]: 94%

COc1ccc2c(c[n+](C)c3c4cc5c(cc4ccc23)OCO5)c1OC.[Cl-] [Chelerythrine Cl]
% Inhibition of IMPα-NLS Interaction PfIMPα [1, 9]: 81%
% Inhibition of IMPα-NLS Interaction TgIMPα [2, 10]: 67%
% Inhibition of IMPα-NLS Interaction MmΔIBBIMPα [3, 11]: 88%
% Inhibition of IMPα-NLS Interaction MmIMPα/β [4, 12]: 94%

CNC[C@H](O)c1ccc(O)c(O)c1.Cl (racemic) [(±)-Epinephrine HCl]
% Inhibition of IMPα-NLS Interaction MmΔIBBIMPα [3]: 35%
% Inhibition of IMPα-NLS Interaction MmΔIBBIMPα ([3]; listed as (±)-epinephrine HCl): < 55%
% Inhibition of IMPα-NLS Interaction MmIMPα/β [4]: 95%
% Inhibition of IMPα-NLS Interaction MmIMPα/β ([4]; listed as (±)-epinephrine HCl): ≥ 95%

Cc1ccc(S(=O)(=O)/C=C/C#N)cc1 [Bay 11-7082]
inhibition of growth of T. gondii tachyzoites [7]: inhibit the growth

Plasmodium falciparum importin α (PfIMPα), biotinylated GST fusion protein (natural protein)
Kd [8]: 6.5 nM
